“Also recorded” adds a separate entry of the source.

The term EC50 denotes the concentration giving half of the maximal effect.

Data set [1] concerns THP1‐NTR^+ cells. As to the kind of experiment: Colony forming unit. Type of data set: cell-based. To be noted: for EC50: read-out: THP1‐NTR^+ CFU EC50; for Selectivity window THP1^wt / THP1‐NTR^+: CFU EC50 ratio.
Data set [2] has as its system THP1^wt cells. As to the kind of experiment: MTS cell viability assay, non-transfected cells. Type of data set: cell-based.
The test system of data set [3] is THP1‐NTR^+ cells. In words: MTS cell viability assay, NTR-expressing cells. It counts as cell-based.
A further data set deals with LSD1 (Homo sapiens, UniProt O60341). The following applies: cited from earlier work.
The subject of data set [4] is THP1‐NTR^+ cells. In words: CD86-based cell assay. The following applies: for Selectivity window THP1^wt / THP1‐NTR^+: CD86 EC50 ratio; for EC50: 72 h, read-out: THP1‐NTR^+ CD86^+ EC50.
The subject of data set [5] is THP1^wt cells. In words: CD86-based cell assay. To be noted: 72 h, read-out: THP1^wt CD86^+ EC50.
Data set [6] has as its system THP1^wt cells. In words: Colony forming unit.
For data set [7], the system named is THP1‐NTR^+ cells. In words: Luminescent measurement of NTR activity in cells, NTR-expressing. It counts as cell-based. To be noted: 25 μM, 60 min.
The subject of data set [8] is THP1^wt cells. As to the kind of experiment: Luminescent measurement of NTR activity in cells, non-transfected. Type of data set: cell-based. To be noted: 25 μM, 60 min.
The subject of a further data set is recombinant NTR. In words: Luminescent probe activation by recombinant NTR in vitro. It counts as biochemical, E. coli. The following applies: low NTR concentrations (18–30 nM).
Data set [9] concerns the target T1, nitroreductase NfsB (NTR) (Escherichia coli, UniProt P38489).
T1 sequence (P38489 1-217): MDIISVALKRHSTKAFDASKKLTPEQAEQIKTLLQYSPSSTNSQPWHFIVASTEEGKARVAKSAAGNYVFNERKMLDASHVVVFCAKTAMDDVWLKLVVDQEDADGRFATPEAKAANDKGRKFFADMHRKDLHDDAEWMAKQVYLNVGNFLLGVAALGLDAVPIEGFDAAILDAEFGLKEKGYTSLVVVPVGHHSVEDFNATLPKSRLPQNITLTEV
Type of data set: biochemical, E. coli.

In data set [10] the test system is mixtures of the cell lines THP1^wt and THP1‐NTR^+. As to the kind of experiment: Bystander effect in the CFU assay. Type of data set: cell-based. To be noted: at 1.0 μM.
Setting [11] is: 240 h, read-out: THP1^wt CFU EC50.
Where [12] appears, read: read-out: THP1^wt CFU EC50, 10 days.

`COc1ncccc1CN[C@H]1[C@@H](C)[C@@H]1c1ccccc1` (relative stereo) [2 a, (1S*,2S*,3R*)‐N‐((2‐Methoxypyridin‐3‐yl) methyl)‐2‐methyl‐3‐phenylcyclo propan‐1‐amine]: the half-maximal effective concentration (EC50) in the data set with THP1‐NTR^+ cells [1] (240 h) amounted to 32400 ± 1700 nM; in the data set with THP1‐NTR^+ cells [4] (Homo sapiens) it was 15300 nM; in the data set with THP1^wt cells [5] (Homo sapiens), 17600 nM; in the data set with THP1^wt cells [6] (setting [11]), 45500 ± 3200 nM. Further, the “Selectivity window THP1^wt / THP1‐NTR^+” value in the data set on THP1‐NTR^+ cells [1] and with THP1‐NTR^+ cells [4] was 1±1 throughout. Further, the “cytotoxicity in THP1^wt (in words)” value in the data set on THP1^wt cells [2] is recorded as “no cytotoxic effect”. Moreover, in the data set on THP1‐NTR^+ cells [3], the “cytotoxicity in THP1‐NTR^+ (in words)” value is reported as “no cytotoxic effect”. Moreover, the “LSD1 inhibition (in words)” value on LSD1 is “lack inhibitory activity on LSD1 in the low micromolar range; also recorded: inactive on LSD1 below 10 μM”. Moreover, in the data set on THP1‐NTR^+ cells [4] (at 10 μM), the “THP1‐NTR^+ CD86^+ cells” value is 34%.
Take `N#Cc1nc2ccc(OCc3ccc([N+](=O)[O-])s3)cc2s1` [compound 4, 6‐((5‐Nitrothiophen‐2‐yl)methoxy)benzo[d]thiazole‐2‐carbonitrile]: the “probe conversion in NTR-expressing THP1 cells (in words)” value in the data set with THP1‐NTR^+ cells [7] is listed as “converted to luciferin”. In addition, in the data set with THP1^wt cells [8], the “probe conversion in nontransfected THP1^wt cells (in words)” value is “no activation”.
`COc1ncccc1CN[C@@H]1C[C@H]1c1ccccc1` (racemic) [1 a, trans‐N‐((2‐Methoxypyridin‐3‐yl) methyl)‐2‐phenylcyclopropan‐1‐amine, reference compound]: the concentration giving a half-maximal response (EC50) with THP1‐NTR^+ cells [1] (240 h) was 40 ± 10 nM; in the data set on THP1‐NTR^+ cells [4] (Homo sapiens), 4.1 ± 0.4 nM; with THP1^wt cells [5] (Homo sapiens), 3 ± 0.3 nM; with THP1^wt cells [6] (setting [11]) it was 60 ± 20 nM; in the data set on THP1^wt cells [6] (read-out: colony formation EC50), 68 ± 12 nM. Further, the “cytotoxicity in THP1^wt (in words)” value in the data set on THP1^wt cells [2] is “no cytotoxic effect”. Besides, in the data set with THP1‐NTR^+ cells [3], the “cytotoxicity in THP1‐NTR^+ (in words)” value was “no cytotoxic effect”.
As for `CN(CCN(C)C(=O)Oc1ccc2nc(C#N)sc2c1)C(=O)OCc1ccc([N+](=O)[O-])s1` [compound 5, 2‐Cyanobenzo[d]thiazol‐6‐yl ((5‐nitrothiophen‐2‐yl)methyl) ethane‐1,2‐diylbis(methyl carbamate)], the “factor by which conversion exceeds that of probe 4” value with recombinant NTR is “at least 5”. Moreover, the “probe conversion in NTR-expressing THP1 cells (in words)” value in the data set with THP1‐NTR^+ cells [7] is given as “converted to luciferin”. For the same compound, in the data set with THP1^wt cells [8], the “probe conversion in nontransfected THP1^wt cells (in words)” value is listed as “no activation”.
In the case of “(1‐Methyl‐2‐nitro‐1H‐imidazol‐5‐yl)methyl((2‐methoxypyridin‐3‐yl)methyl) ((1S*,2S*,3R*)‐2‐methyl‐3‐phenylcyclopropyl)carbamate [2 f]”, in the data set on THP1‐NTR^+ cells [1], the “Selectivity window THP1^wt / THP1‐NTR^+” value is listed as over 58±13. Besides, the concentration for a half-maximal effect (EC50) was 900 ± 200 nM in the data set on THP1‐NTR^+ cells [1] (10 days), over 50000 nM in the data set with THP1^wt cells [5] (FACS) and over 50000 nM with THP1^wt cells [6] (setting [12]). Also, the “cytotoxicity in THP1‐NTR^+ (in words)” value with THP1‐NTR^+ cells [3] was “cytotoxicity”.
In the case of “(1‐Methyl‐2‐nitro‐1H‐imidazol‐5‐yl)methyl((2‐methoxypyridin‐3‐yl)methyl) ((1S*,2R*)‐2‐phenylcyclopropyl)carbamate [1 f]”, the “% conversion to 1a (fragmentation)” value in data set [9] (HPLC of Fmoc derivative 3 after NTR reaction, Figure 3C) is 59.3%. The “factor of prodrug fragmentation relative to 4-nitrobenzyl 1 b” value in [9] (calculated from fragmentation data, Figure 3D) is listed as 17 x. Besides, the results for the “Selectivity window THP1^wt / THP1‐NTR^+” value with THP1‐NTR^+ cells [1] and with THP1‐NTR^+ cells [4] were 14±4 and 66±8, respectively. Moreover, the EC50 worked out at 330 ± 70 nM with THP1‐NTR^+ cells [1] (10 days), 5.7 ± 0.4 nM in the data set on THP1‐NTR^+ cells [4] (FACS), 376 ± 17 nM in the data set on THP1^wt cells [5] (FACS) and 4400 ± 700 nM in the data set on THP1^wt cells [6] (setting [12]). Further, the “cytotoxicity in THP1‐NTR^+ (in words)” value in the data set with THP1‐NTR^+ cells [3] was “cytotoxic effects”. Besides, the “bystander effect in the CFU assay” value in [10] is reported as “no bystander effect”. The “effect on colony formation in THP1^wt (in words)” value with THP1^wt cells [6] is reported as “no effect in THP1^wt up to 2 μM”.
